Here are results for 7 molecules from ChEMBL document CHEMBL2086257, “Rhododendric acid A, a new ursane-type PTP1B inhibitor from the endangered plant Rhododendron brachycarpum G. Don” (Bioorg Med Chem Lett, 2012).

This test addresses T1, Tyrosine-protein phosphatase non-receptor type 1 (Homo sapiens, UniProt P18031).
T1 sequence (P18031 whole entry): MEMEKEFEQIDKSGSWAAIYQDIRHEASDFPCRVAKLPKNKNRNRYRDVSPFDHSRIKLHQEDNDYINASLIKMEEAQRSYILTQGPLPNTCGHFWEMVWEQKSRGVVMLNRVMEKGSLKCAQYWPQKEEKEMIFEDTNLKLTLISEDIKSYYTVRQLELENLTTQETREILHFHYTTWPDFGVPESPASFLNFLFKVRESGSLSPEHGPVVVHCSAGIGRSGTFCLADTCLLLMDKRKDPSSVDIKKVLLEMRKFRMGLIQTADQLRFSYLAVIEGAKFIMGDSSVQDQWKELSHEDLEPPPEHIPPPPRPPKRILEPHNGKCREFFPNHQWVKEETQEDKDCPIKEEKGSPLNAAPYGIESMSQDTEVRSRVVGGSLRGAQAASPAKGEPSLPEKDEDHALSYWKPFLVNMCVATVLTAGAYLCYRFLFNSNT
Briefly: Inhibition of human recombinant PTP1B using p-nitrophenyl phosphate as substrate assessed as p-nitrophenol release after 30 mins.
For `C=C1CC[C@]2(C(=O)O)CC[C@]3(C)C(=CC[C@@H]4[C@@]5(C)C[C@@H](O)[C@@H](O)[C@@](C)(CO)[C@@H]5CC[C@]43C)[C@@H]2[C@H]1C`, the IC50 was 17.4 µM.

`CCCCCCCCCCCCCCCC(=O)C1=C(O)[C@@H](CO)OC1=O`: the IC50 is 4 µM.

For `C[C@H]1[C@H](C)CC[C@]2(C(=O)O)CC[C@]3(C)C(=CC[C@@H]4[C@@]5(C)CC[C@H](O)[C@@](C)(CO)[C@@H]5CC[C@]43C)[C@H]12`, the IC50 was 7.4 µM.

On to `C=C1CC[C@]2(C(=O)O)CC[C@]3(C)C(=CC[C@@H]4[C@@]5(C)C[C@@H](O)[C@H](O)[C@@](C)(CO)[C@@H]5CC[C@]43C)[C@@H]2[C@H]1C` [ACTINIDIC ACID], for which the IC50 was found to be 18 µM.

As to `C[C@H]1[C@H](C)CC[C@]2(C(=O)O)CC[C@]3(C)C(=CC[C@@H]4[C@@]5(C)C[C@@H](O)[C@H](O)C(C)(C)[C@@H]5CC[C@]43C)[C@H]12` [COROSOLIC ACID], the IC50 is 7 µM.

In the case of `C=C1CC[C@]2(C(=O)O)CC[C@]3(C)C(=CC[C@@H]4[C@@]5(C)CC[C@H](O)[C@@](C)(CO)[C@@H]5CC[C@]43C)[C@@H]2[C@H]1C` [RHODODENDRIC ACID A], the half-maximal inhibitory concentration (IC50) came out at 6.3 µM.

As for `C[C@@H]1CC[C@]2(C(=O)O)CC[C@]3(C)C(=CC[C@@H]4[C@@]5(C)CC[C@H](O)[C@@](C)(CO)[C@@H]5CC[C@]43C)[C@@H]2[C@]1(C)O` [ROTUNDIC ACID], the IC50 worked out at 20.1 µM.

A word on the IC50: it is the concentration at which inhibition is half-maximal.
